Target: Calcium-activated potassium channel subunit alpha-1 (Homo sapiens) (UniProt Q12791)
Test: The compound was tested for maxi-K channel opening property at concentration of 20 uM, activity expressed as percentage of current

Calcium-activated potassium channel subunit alpha-1 (Homo sapiens), sequence (Q12791 whole entry): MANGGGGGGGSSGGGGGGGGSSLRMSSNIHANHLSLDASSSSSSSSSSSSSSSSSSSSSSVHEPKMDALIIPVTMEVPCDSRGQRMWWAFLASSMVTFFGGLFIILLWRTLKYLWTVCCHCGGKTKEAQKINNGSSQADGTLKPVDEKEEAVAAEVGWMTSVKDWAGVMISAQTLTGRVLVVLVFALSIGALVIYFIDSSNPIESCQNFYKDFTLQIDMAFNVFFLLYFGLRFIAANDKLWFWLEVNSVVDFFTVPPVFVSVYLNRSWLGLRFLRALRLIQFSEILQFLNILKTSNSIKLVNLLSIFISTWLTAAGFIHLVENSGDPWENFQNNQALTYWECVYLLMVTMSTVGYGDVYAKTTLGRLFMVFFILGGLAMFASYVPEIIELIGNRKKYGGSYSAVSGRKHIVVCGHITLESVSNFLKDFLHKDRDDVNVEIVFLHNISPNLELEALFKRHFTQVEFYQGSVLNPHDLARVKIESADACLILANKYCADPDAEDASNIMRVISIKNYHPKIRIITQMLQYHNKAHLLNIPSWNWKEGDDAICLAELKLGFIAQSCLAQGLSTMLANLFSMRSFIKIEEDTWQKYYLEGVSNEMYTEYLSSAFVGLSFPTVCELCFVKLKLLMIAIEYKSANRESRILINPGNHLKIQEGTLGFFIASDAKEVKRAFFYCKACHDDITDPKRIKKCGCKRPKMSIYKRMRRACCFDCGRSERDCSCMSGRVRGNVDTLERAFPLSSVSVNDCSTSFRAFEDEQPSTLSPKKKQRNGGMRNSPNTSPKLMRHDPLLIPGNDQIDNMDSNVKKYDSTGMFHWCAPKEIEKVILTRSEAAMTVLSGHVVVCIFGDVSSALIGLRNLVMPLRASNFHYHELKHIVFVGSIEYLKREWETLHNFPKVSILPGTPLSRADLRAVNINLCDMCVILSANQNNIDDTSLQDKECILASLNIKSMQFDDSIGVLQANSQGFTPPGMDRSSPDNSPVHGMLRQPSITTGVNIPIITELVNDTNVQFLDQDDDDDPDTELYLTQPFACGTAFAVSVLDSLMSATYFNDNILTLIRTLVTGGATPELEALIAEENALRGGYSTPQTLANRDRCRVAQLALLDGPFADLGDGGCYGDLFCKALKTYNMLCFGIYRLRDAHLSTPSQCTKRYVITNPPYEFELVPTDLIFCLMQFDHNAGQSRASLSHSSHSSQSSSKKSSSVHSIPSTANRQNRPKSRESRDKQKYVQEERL

| Structure (SMILES) | Maxi-K current, % of control [%] |
| --- | --- |
| O=C(CCc1ccc(O)cc1)c1c(O)cc(O)cc1O | 120 |
| O=c1cc(-c2ccccc2)oc2ccccc12 | 103 |
| O=c1c(O)c(-c2ccc(O)cc2)oc2cc(O)cc(O)c12 | 167 |
| O=C(/C=C/c1ccccc1)c1ccccc1 | 82.4 |
| O=c1[nH]c2cc(C(F)(F)F)ccc2n1-c1cc(Cl)ccc1O | 132 |
| O=C(/C=C/c1cccc([N+](=O)[O-])c1)c1ccccc1O | 74.4 |
| O=c1cc(-c2ccc(O)cc2)oc2cc(O)cc(O)c12 | 159 |
| CC(=O)Nc1ccc(O)c(C(=O)/C=C/c2ccccc2)c1 | 81.5 |
| COc1cc(OC)c2c(=O)c(OC)c(-c3ccc(OC)c(OC)c3)oc2c1 | 94.6 |
